Calls of active or inactive are those of the source. The calls are words filed in the database; no cut-off is given here. Positions of bridges follow the written chain, without caps; N, C: chain ends. Non-standard residues stand in square brackets, D forms with d. Residues, ends and D or L forms follow the SMILES beside them. *: point of attachment. NH(3,5-(CF3)2-benzyl) = FC(F)(F)c1cc(CN*)cc(C(F)(F)F)c1; Nle = CCCC[C@H](N)C(=O)O
Tests used:
[1] = molecular target: Delta-type opioid receptor (Mus musculus, UniProt P32300); assay: Agonist activity at delta opioid receptor in mouse vas deferens assessed as inhibition of electrically-stimulated contraction; type: functional, tissue-based
Chain of Delta-type opioid receptor (Mus musculus, UniProt P32300) (P32300 whole entry): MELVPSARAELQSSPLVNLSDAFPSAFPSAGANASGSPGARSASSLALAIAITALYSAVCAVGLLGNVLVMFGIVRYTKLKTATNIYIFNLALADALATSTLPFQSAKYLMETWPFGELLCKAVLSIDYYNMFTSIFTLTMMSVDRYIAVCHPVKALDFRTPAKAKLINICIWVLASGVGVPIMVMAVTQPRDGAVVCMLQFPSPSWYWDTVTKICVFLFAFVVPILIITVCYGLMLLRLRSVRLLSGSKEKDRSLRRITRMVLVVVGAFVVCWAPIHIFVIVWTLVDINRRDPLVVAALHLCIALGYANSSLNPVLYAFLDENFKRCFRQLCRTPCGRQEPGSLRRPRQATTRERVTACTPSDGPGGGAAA

[2] = molecular target: Mu-type opioid receptor (Cavia porcellus, UniProt P97266); assay: Agonist activity at mu opioid receptor in guinea pig ileum assessed as inhibition of electrically-stimulated contraction; type: functional, tissue-based
Chain of Mu-type opioid receptor (Cavia porcellus, UniProt P97266) (P97266 whole entry): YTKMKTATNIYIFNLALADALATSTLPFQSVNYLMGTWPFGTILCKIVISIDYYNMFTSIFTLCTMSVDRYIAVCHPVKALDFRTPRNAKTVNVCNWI

[3] = molecular target: Mu-type opioid receptor (Cavia porcellus) (UniProt P97266); assay: Agonist activity at mu opioid receptor in guinea pig ileum assessed as inhibition of electrically-stimulated contraction at 1 uM; type: functional, tissue-based
Chain of Mu-type opioid receptor (Cavia porcellus) (P97266 whole entry): as above

[4] = molecular target: T1, Mu-type opioid receptor (Rattus norvegicus, UniProt P33535); assay: Displacement of [3H]DAMGO from rat mu opioid receptor expressed in HN9.10 cells; type: cell-based
T1 sequence (P33535 whole entry): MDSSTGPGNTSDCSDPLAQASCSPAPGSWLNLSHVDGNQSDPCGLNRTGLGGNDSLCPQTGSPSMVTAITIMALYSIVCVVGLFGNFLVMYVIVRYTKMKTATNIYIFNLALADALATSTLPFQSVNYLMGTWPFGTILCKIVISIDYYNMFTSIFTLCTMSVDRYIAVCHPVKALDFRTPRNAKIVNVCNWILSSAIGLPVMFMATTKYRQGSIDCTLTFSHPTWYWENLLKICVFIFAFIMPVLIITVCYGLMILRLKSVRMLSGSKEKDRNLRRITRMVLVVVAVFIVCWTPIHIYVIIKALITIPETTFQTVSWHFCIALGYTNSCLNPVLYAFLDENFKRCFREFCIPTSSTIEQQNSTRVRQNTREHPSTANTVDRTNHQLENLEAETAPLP

[5] = molecular target: T2, Delta-type opioid receptor (Homo sapiens, UniProt P41143); assay: Displacement of [3H]DPDPE from human delta opioid receptor expressed in HN9.10 cells; type: cell-based
T2 sequence (P41143 whole entry): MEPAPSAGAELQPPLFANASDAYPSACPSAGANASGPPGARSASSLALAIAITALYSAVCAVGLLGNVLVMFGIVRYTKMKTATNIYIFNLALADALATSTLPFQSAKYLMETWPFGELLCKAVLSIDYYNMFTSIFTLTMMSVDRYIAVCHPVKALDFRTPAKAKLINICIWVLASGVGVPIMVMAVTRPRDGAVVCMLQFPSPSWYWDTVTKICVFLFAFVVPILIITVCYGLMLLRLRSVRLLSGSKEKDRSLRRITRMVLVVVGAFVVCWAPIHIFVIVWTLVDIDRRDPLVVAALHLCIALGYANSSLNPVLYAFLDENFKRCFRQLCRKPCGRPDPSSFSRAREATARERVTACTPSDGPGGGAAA

[6] = molecular target: Mu-type opioid receptor (Cavia porcellus) (UniProt P97266); assay: Antagonist activity at mu opioid receptor in guinea pig ileum assessed as effect on electrically-stimulated contraction at 1 uM; type: functional, tissue-based
[7] = molecular target: Substance-P receptor (Rattus norvegicus, UniProt P14600); assay: Displacement of [3H]substance P from rat NK1 receptor expressed in CHO cell membranes; design: species or system Membrane
Chain of Substance-P receptor (Rattus norvegicus, UniProt P14600) (P14600 whole entry): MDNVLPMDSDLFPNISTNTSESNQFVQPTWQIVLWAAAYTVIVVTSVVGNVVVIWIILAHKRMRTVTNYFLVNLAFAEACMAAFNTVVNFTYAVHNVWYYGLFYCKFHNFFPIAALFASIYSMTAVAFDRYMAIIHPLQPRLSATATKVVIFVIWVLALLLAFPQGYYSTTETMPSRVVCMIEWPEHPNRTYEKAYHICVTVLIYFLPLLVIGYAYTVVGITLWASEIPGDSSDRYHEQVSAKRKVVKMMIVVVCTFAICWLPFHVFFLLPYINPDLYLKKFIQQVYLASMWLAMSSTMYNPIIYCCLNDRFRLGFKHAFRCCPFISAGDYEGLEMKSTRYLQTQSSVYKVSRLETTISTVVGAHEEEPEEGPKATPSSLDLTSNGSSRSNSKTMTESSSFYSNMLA

[8] = molecular target: T2, Delta-type opioid receptor; assay: Agonist activity at human delta opioid receptor expressed in HN9.10 cells assessed as stimulation of [35S]GTPgammaS binding; type: functional, cell-based
[9] = molecular target: T1, Mu-type opioid receptor; assay: Agonist activity at rat mu opioid receptor expressed in HN9.10 cells assessed as stimulation of [35S]GTPgammaS binding; type: functional, cell-based
[10] = molecular target: T2, Delta-type opioid receptor; assay: Agonist activity at human delta opioid receptor expressed in HN9.10 cells assessed as stimulation of [35S]GTPgammaS binding relative to untreated basal control; type: functional, cell-based
[11] = molecular target: Substance-P receptor (Cavia porcellus) (UniProt P30547); conditions: Ileum
Chain of Substance-P receptor (Cavia porcellus) (P30547 whole entry): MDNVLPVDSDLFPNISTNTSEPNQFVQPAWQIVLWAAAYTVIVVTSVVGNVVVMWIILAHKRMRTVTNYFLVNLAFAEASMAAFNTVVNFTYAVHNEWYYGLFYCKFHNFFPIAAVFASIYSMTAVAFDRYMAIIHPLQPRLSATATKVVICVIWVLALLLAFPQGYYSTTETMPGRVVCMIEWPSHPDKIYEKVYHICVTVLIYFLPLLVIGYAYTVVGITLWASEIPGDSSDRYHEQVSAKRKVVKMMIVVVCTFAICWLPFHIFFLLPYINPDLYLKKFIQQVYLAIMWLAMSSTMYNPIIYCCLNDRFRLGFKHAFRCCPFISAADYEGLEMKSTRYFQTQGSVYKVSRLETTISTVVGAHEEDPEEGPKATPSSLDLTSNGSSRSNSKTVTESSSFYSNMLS
Description: Antagonist activity at NK1 receptor in guinea pig ileum assessed as inhibition of substance P-induced muscle contraction in presence of naloxone

[12] = molecular target: Mu-type opioid receptor (Rattus norvegicus) (UniProt P33535); assay: Agonist activity at rat mu opioid receptor expressed in HN9.10 cells assessed as stimulation of [35S]GTPgammaS binding relative to untreated basal control; type: functional, cell-based
Chain of Mu-type opioid receptor (Rattus norvegicus) (P33535 whole entry): as the sequence (P33535 whole entry) above

[13] = Half life in rat plasma at 37 degC; type: ADME, cell-free
[14] = molecular target: Substance-P receptor (Homo sapiens, UniProt P25103); assay: Displacement of [3H]substance P from human NK1 receptor expressed in CHO cell membranes
Chain of Substance-P receptor (Homo sapiens, UniProt P25103) (P25103 whole entry): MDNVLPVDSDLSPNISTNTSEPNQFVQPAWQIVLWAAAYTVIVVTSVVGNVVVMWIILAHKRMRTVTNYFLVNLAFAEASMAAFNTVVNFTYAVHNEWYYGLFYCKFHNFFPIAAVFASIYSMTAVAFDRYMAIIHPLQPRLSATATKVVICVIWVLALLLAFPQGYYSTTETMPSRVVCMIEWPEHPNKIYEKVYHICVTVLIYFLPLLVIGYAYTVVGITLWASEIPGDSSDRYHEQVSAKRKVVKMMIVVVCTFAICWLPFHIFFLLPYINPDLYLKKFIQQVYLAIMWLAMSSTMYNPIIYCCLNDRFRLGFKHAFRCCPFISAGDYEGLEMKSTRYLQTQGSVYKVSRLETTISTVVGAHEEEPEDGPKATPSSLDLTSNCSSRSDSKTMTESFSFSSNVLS

[15] = Metabolic stability in rat plasma assessed as parent compound remaining at 37 degC after 24 hrs; type: ADME, cell-free; conditions: read-out: Stability

## CSCC[C@H](NC(=O)[C@H](Cc1ccccc1)NC(=O)CNC(=O)[C@@H](C)NC(=O)[C@@H](N)Cc1ccc(O)cc1)C(N)=O
[1]
  IC50: 36 nM
[2]
  IC50: 45 nM

## CC(C)C[C@H](NC(=O)[C@@H]1CCCN1C(=O)[C@@H]1CSSC[C@@H](NC(=O)[C@@H](N)Cc2ccc(O)cc2)C(=O)NCC(=O)N[C@@H](Cc2ccccc2)C(=O)N1)C(=O)N[C@@H](Cc1c[nH]c2ccccc12)C(=O)NCc1cc(C(F)(F)F)cc(C(F)(F)F)c1
[3]
  inhibition: 10%
[4]
  IC50: 427 nM
[5]
  IC50: 22.4 nM
[6]
  Activity: Active
[7]
  IC50: 1780 nM

## CC(C)C[C@H](NC(=O)[C@@H]1CCCN1C(=O)[C@H]1CSSC[C@@H](NC(=O)[C@@H](N)Cc2ccc(O)cc2)C(=O)NCC(=O)N[C@@H](Cc2ccccc2)C(=O)N1)C(=O)N[C@@H](Cc1c[nH]c2ccccc12)C(=O)NCc1cc(C(F)(F)F)cc(C(F)(F)F)c1
[4]
  IC50: 115 nM
[5]
  IC50: 15.5 nM
[7]
  IC50: 138 nM

## CCCC[C@@H]1NC(=O)[C@H](Cc2ccccc2)NC(=O)CNC(=O)[C@H](NC(=O)[C@@H](N)Cc2ccc(O)cc2)CSSC[C@@H](C(=O)N[C@@H](Cc2c[nH]c3ccccc23)C(=O)NCc2cc(C(F)(F)F)cc(C(F)(F)F)c2)NC(=O)[C@@H]2CCCN2C1=O (H-Y[dC]GF[Nle]PCW-{NH(3,5-(CF3)2-benzyl)}; disulfide 2-7)
[8]; read-out: pEC50 (converted)
  EC50: 0.0174 nM
[9]
  EC50: 36 nM
[10]
  Emax: 11%
[4]
  IC50: 166 nM
[11]
  Ke: 2.2 nM
[5]
  IC50: 2.69 nM
[12]
  Emax: 36%
[13]
  half-life: > 6 h
[14]
  IC50: 0.186 nM
[2]
  IC50: 1000 nM
[7]
  IC50: 95.5 nM

## CCCC[C@@H]1NC(=O)[C@H](Cc2ccccc2)NC(=O)CNC(=O)[C@H](NC(=O)[C@@H](N)Cc2ccc(O)cc2)CSSC[C@H](C(=O)N[C@@H](Cc2c[nH]c3ccccc23)C(=O)NCc2cc(C(F)(F)F)cc(C(F)(F)F)c2)NC(=O)[C@@H]2CCCN2C1=O (H-Y[dC]GF[Nle]P[dC]W-{NH(3,5-(CF3)2-benzyl)}; disulfide 2-7)
[8]; read-out: EC50
  EC50: 13 nM
[15]
  remaining at 24 h: 70%
[9]
  EC50: 22 nM
[3]
  inhibition: 3%
[10]
  Emax: 110%
[4]
  IC50: 316 nM
[11]
  Ke: 12 nM
[5]
  IC50: 117 nM
[12]
  Emax: 9%
[13]
  half-life: > 6 h
[6]
  Activity: Active
[14]
  IC50: 0.49 nM
[7]
  IC50: 22.4 nM
